According to patent US6630481B2, “Viologen linked acridine based molecule and process for the preparation thereof” (Council of Scientific and Industrial Research of India, priority 2001, dated 2003):

Columns and labels:
PM2 DNA = assay: DNA relaxation assay: photoactivated cleavage of plasmid DNA with repair endonucleases; type: biochemical; conditions: 360 nm light; for damage sensitive to FPG protein with increase in the time of irradiation: 0° C., FIG. 5 and FIG. 6; for generation of single strand breaks (SSB) with irradiation time: irradiation for 30 min
From the text: Cleavage of plasmid DNA was followed by monitoring the conversion of supercoiled (Form I) to open circular relaxed (Form II) and linear (Form III). Plasmid DNA cleavage is a very sensitive technique and when combined with several repair endonucleases, it can serve as a kind of fingerprint of the species directly responsible for the damage. Induction of one single strand break (SSB) by a compound converts Form I to Form II and the quantification of which indicates its efficiency of DNA cleavage. A DNA relaxation assay was used to quantify SSB and endonuclease-sensitive modifications (Epe, B.; Helger, J.; Wild, D. Carcinogenesis 1989, 10, 2019 and Epe, B.; Mftzel, P.; Adam, W. Chem. Biol. Interactions 1988, 67, 149). This assay makes use of the fact that Form I when converted by either a single strand break (SSB) or the incision by a repair endonuclease leads to Form II, which migrates separately in agarose gel electrophoresis.
Phosphate-buffered (pH 7.0), air-saturated solutions of PM2 DNA (10 μg/mL) at 0° C. were irradiated with 360 nm near-UV irradiation in the presence of various concentrations of acridine-viologen bifunctional molecules represented by compound of formula 1a and 1b (wherein Y=—(CH2)n, wherein n=1-11; R=—MV^2+—(CH2)m—CH32X^⊖ or —Pyr^2+—(CH2)m—CH32X^⊖ and wherein Y=—(CH2)n, wherein n=1-11; R=—MV^2+—(CH2)m—Acr2X^⊖ or —Pyr^2+—(CH2)m—Acr2X^⊖ respectively). Subsequently, the DNA was analyzed for the following types of modifications: (i) DNA single and double strand breaks; (ii) sites of base loss (AP sites) recognized by exonuclease III; (iii) base modifications plus AP sites sensitive to the T4 endonuclease V; (iv) base modifications plus AP sites sensitive to the endonuclease III and (v) base modifications plus AP sites sensitive to formamidopyrimidine-DNA glycosylase (FPG protein).

calf thymus DNA = assay: DNA binding affinity (association constants) by absorption and fluorescence; conditions: buffer containing 1 mM EDTA
Description: DNA binding efficiency. DNA binding affinities of acridine-viologen bifunctional molecules represented by compound of formula 1a and 1d were analyzed using calf thymus DNA, in NaCl buffer at different salt concentrations (2 mM and 100 mM). Test solutions containing different concentrations of calf thymus DNA in NaCl buffer were incubated at room temperature for one hour to complete the complexation and were analyzed using absorption and fluorescence techniques. […] The binding constants of viologen linked acridines with DNA were determined according to the reported procedures. References may be made to Peacocke, A. R.; Skerrett, J. N. H. Trans. Faraday Soc. 1956, 52, 261; McGhee, J. D.; von Hippel, P. H. J. Mol. Biol. 1974, 86, 469; Scatchard, G. Ann. N.Y. Acad. Sci 1949, 51, 660; Adam, W.; Cadet, J.; Dall'Acqua, F.; Epe, B.; Ramaiah, D.; Saha-Moller, C. R. Angew. Chem. Int. Ed. Engl. 1995, 34, 107). […] Further fluorescence lifetimes of these compounds were also examined in presence and absence of DNA.

| Compound | damage sensitive to FPG protein with increase in the time of irradiation (PM2 DNA) | generation of single strand breaks (SSB) with irradiation time (PM2 DNA) | K (DNA association constant) (calf thymus DNA; 2 mM NaCl) | K (DNA association constant) (calf thymus DNA; 100 mM NaCl) |
| --- | --- | --- | --- | --- |
| CCCC[n+]1ccc(-c2cc[n+](CCCCCCCCCCCc3c4ccccc4nc4ccccc34)cc2)cc1.[Br-].[Br-] [1-[11-(acridin-9-yl)undecyl]-1′-butyl-4,4′-bipyridinium dibromide] | increases | No significant increase | 5.24e+06 M⁻¹ | 164000 M⁻¹ |
| CCCC[n+]1ccc(-c2cc[n+](Cc3c4ccccc4nc4ccccc34)cc2)cc1.[Br-].[Br-] [1-[(acridin-9-yl)methyl]-1′-butyl-4,4′-bipyridinium dibromide] | increases | No significant increase | 924000 M⁻¹ | 101000 M⁻¹ |
| bis-1,1′-[(acridin-9-yl)methyl]-4,4′-bipyridinium dibromide |  |  | 1.3e+06 M⁻¹ | 390000 M⁻¹ |
